For data set [1], the system named is MCF-7 breast carcinoma cell line. Particulars: literature reference 7; cited from earlier work.
For data set [2] the following is noted: volume weighted average. The procedure:
The prodrug, co-lipid and stabilizer polymers (typically on a 1:1:2 w/w basis) were dissolved in ethanol/THF (4:1) at a concentration of 40 mg/ml. The solvent was rapidly diluted with water using a four port CVIJ mixer^13, 14 with flow rates set at […] (solvent/water/water/water). Flow rates were controlled using Harvard Apparatus PHD2000 syringe pumps. The resultant solution was then dialyzed against water to remove residual solvent. […] When higher concentrations were required the dialyzed solution was diluted with equi-volumes of 600 mM sucrose and then concentrated using a 100 kD, 0.5 mm lumen, 60 cm path length MidGee hoop cartridge (GE Healthcare Life Sciences, Piscataway, N.J.) with a peristaltic pump. Particle size was determined using a Malvern Zetasizer Nano-ZS particle sizer and reported as volume weighted data.
Formulations were composed of a prodrug, a co-lipid and an amphipathic stabilizer in a weight ratio of 1:1:2, respectively at a concentration of 40 mg per mL of solvent. […] Poly(ethylene glycol)-b-polystyrene (2kPS3k or 2.5kPS3k) was used as the amphipathic stabilizer. Other stabilizers may also be used.

For data set [3] the following is noted: vortexing 30 seconds. The protocol: The physical stability of formulations was investigated by examining changes in particle size after vortexing prodrug/co-lipid/2.5kPS3k (1:1:2) nanoparticles in water, 150 mM saline or 300 mM sucrose (Table 1). […] The increase in particle size was monitored by using dynamic light scattering to measure the Z average (the intensity weighted mean size of the particle distribution) value for samples before and after vigorous vortexing. The change in the Zave value was used as surrogate readout for the formation of aggregates or precipitates resulting from mechanical instability, where a higher value for ΔZave indicated a higher level of aggregation or precipitation (Table 1).

Data set [4] has as its system HT29 human colon carcinoma cells. Particulars: for treatment induced delay in reaching a mean tumor size of 500 mm^3: HT29 model, 36 μmol/kg. The protocol: Female athymic nude mice (7-8 weeks old) were inoculated subcutaneously with 100 μl HT29 human colon carcinoma cells (2×10^6 cells) using a 26 gauge needle. Mice were randomly grouped (n=6/group) with a mean tumor size between 80 and 120 mg prior to first treatment. […] Subsequent injections were made according to the designated schedule. Tumor length and width measurements, body weight and in life observations were recorded 2-3 times per week. Tumor weight was calculated according to the formula (L×W^2)/2.
The relative efficacies of nanoparticle formulations of 1, 2, 4, 5, 6 and 7 were determined in the HT29 model using a 36 μmol/kg dose on a Q4Dx6 schedule (FIG. 3). Saline was used as a negative control.
(§1) The activity of 7 in POPC/2.5kPS3k nanoparticle formulations relative to paclitaxel was determined by comparing the efficacy of doses ranging from 0.25 to 3 mole equivalents of paclitaxel (FIG. 4) in the HT29 tumor model. Taxol® dosed at 23 μmol/kg on a Q2Dx5 schedule was used as a positive control.
The tumor growth data was analyzed by two methods to determine what dose of 7 would be equivalent to the Taxol® positive control.

The conditions of data set [5]: unbuffered processed plasma sample.
Excerpt: Methanol:acetonitrile 1:4 (v:v) was effective in near complete precipitation of plasma proteins and liberation of the prodrug from the nanoparticle.
In data set [6] the test system is MCF-7 human tumor cell line. Particulars: read-out: IC50 values MCF-7; prodrug/POPC/2kPS3k (1:1:2) formulations; 72 hours; MTT; ± SD.
For data set [7] the following is noted: mouse, in vivo.
Description: Athymic nude mice (n=3/timepoint) were injected iv with test samples (10 μl/g body weight, to a maximum of 250 μl). Blood was collected at the designated time point by cardiac puncture and placed into EDTA coated microtainer tubes (BD Biosciences). The tubes were centrifuged at 2800 rpm for 10 minutes. Plasma was recovered and 50 μl aliquots analyzed by HPLC for drug content. Samples containing ^3H—CHE (50 μl) were diluted with PicoFluor40™ scintillation fluid (Packard) and counted on a Beckman-Coulter LS 6500 Multipurpose scintillation counter. The total drug (counts) per mouse in the blood compartment was calculated assuming a plasma volume of 0.04125 mL per gram of body weight.
Elimination studies tracking both the prodrug and the particle were conducted to obtain a more accurate description of the partitioning behavior of the prodrugs in vivo (FIG. 1). Prodrug elimination was followed by HPLC, while particle elimination rates were determined by labeling nanoparticles with tritiated cholesterylhexadecyl ether (3H—CHE).
Formulations comprised of 1/VES/2kPS3k (1:1:2) and 2/VES/2kPS3k (1:1:2) were labeled with trace amounts of ^3H—CHE and plasma levels of both the label and prodrug were monitored in Foxn1^nu mice (FIG. 1, Panel A).
Effect of prodrug partitioning on plasma drug elimination was determined. The prodrug panel was screened using prodrug/POPC/2kPS3k (1:1:2) nanoparticles in Foxn1^nu mice to determine elimination rates for the different prodrug conjugates (FIG. 2). […] Conjugates were formulated at a concentration of 0.7 mg/mL.
In order to estimate the partitioning half-life for each prodrug, it was assumed that 1 tracked the particle elimination rate based on the results discussed above. The elimination of all other prodrugs were then fitted to four parameter double exponential decay curves and normalized against 1.
The subject of data set [8] is A2780 human tumor cell line. The experiment in a line: MTT growth inhibition, A2780 cells, 72 hours. Particulars: read-out: IC50 values A2780, prodrug/POPC/2kPS3k (1:1:2) formulations, ± SD.
Data set [9] is described as follows: Maximum tolerated dose on Q2D schedule in HT29 tumor model. The class given is in vivo, mice. Particulars: POPC/2.5kPS3k nanoparticle formulation; Q2Dx5 schedule. The protocol: as §1, with “control. The dosing regime was chosen since the greatest efficacy for 7 was observed on a Q2D schedule, which was also optimal for Taxol®, and the maximum tolerated treatment course at this Taxol® dose was 5 injections. The maximum tolerate dose of 7 on this schedule was approximately 3 paclitaxel equivalents (69 μmol/kg).” for “control.”

[10] abbreviates: prodrug/POPC/2.5kPS3k (1:1:2) nanoparticles in water.
[11] abbreviates: co-lipid POPC, prodrug/co-lipid/2.5kPS3k (1:1:2).
[12] abbreviates: Q4Dx6, nanoparticle formulations.

Like-named read-outs stand apart in the source and are kept apart here.

As to `CCCCCCCCCCCCCCC(Br)C(=O)O[C@@H](C(=O)O[C@H]1C[C@@]2(O)[C@@H](OC(=O)c3ccccc3)[C@@H]3[C@]4(OC(C)=O)CO[C@@H]4C[C@H](O)[C@@]3(C)C(=O)[C@H](OC(C)=O)C(=C1C)C2(C)C)[C@@H](NC(=O)c1ccccc1)c1ccccc1` (some centres unmarked) [2′-(2″-bromohexadecanoyl)paclitaxel], the IC50 in [1] was 70 nM.
On to `CCCCCCCCCCCCCCCC(=O)OC(C(=O)OC1CC2(O)C(OC(=O)c3ccccc3)C3C4(OC(C)=O)COC4CC(O)C3(C)C(=O)C(OC(C)=O)C(=C1C)C2(C)C)C(NC(=O)c1ccccc1)c1ccccc1` (centres unmarked) [2′-O-hexadecanoylpaclitaxel], for which the IC50 in data set [1] was 8600 nM.
As to `CC(=O)O[C@H]1C(=O)[C@@]2(C)[C@H]([C@H](OC(=O)c3ccccc3)[C@]3(O)C[C@H](OC(=O)[C@H](O)[C@@H](NC(=O)c4ccccc4)c4ccccc4)C(C)=C1C3(C)C)[C@]1(OC(C)=O)CO[C@@H]1C[C@@H]2O` [Paclitaxel], the IC50 in data set [1] was under 1 nM.
Take `CCCCCCCC/C=C\CCCCCCCCOC(=O)CCC(=O)O[C@@H](C(=O)O[C@H]1C[C@@]2(O)[C@@H](OC(=O)c3ccccc3)[C@@H]3[C@]4(OC(C)=O)CO[C@@H]4C[C@H](O)[C@@]3(C)C(=O)[C@H](OC(C)=O)C(=C1C)C2(C)C)[C@@H](NC(=O)c1ccccc1)c1ccccc1` [Prodrug 2, 2′-O-(4″-O-oleylsuccinoyl)-paclitaxel]: in data set [2] (setting [10]), the Diameter came out at 26 nm. In data set [3] (setting [11]), the “ΔZave 150 mM saline” value came to 43 nm, the “ΔZave 300 mM sucrose” value came to 10 nm and the ΔZave water was 20 nm. For the same compound, the “therapeutic activity in HT29 model” value in data set [4] (34 μmol/kg dose, Q4Dx6, nanoparticle formulations) is given as “no evidence of any therapeutic activity”. Besides, the “prodrug remaining after processing plasma samples” value in data set [5] (after 68 hours) is listed as “approximately 25%”. Besides, in data set [6], the IC50 is 67 ± 5.9 nM. Moreover, in data set [7] (iv), the “prodrug plasma clearance compared with 3H-CHE label” value is “cleared significantly faster”. Also, the IC50 in data set [8] is 75.1 nM.
Regarding `CCCCCCCCCCCCCCCCCCOC(=O)COCC(=O)O[C@@H](C(=O)O[C@H]1C[C@@]2(O)[C@@H](OC(=O)c3ccccc3)[C@@H]3[C@]4(OC(C)=O)CO[C@@H]4C[C@H](O)[C@@]3(C)C(=O)[C@H](OC(C)=O)C(=C1C)C2(C)C)[C@@H](NC(=O)c1ccccc1)c1ccccc1` [Prodrug 5, 2′-O-(5″-O-octadecyldiglycoloyl)-paclitaxel], the Diameter in data set [2] (no co-lipid, prodrug/2.5kPS3k nanoparticles in water) was determined as 28 nm; in data set [2] (setting [10]), 21 nm; in data set [2] (prodrug/VES/2.5kPS3k (1:1:2) nanoparticles in water), 7 nm. The “ΔZave 150 mM saline” value in data set [3] (setting [11]) is on record as 24 nm; in [3] (co-lipid VES, 2.5kPS3k) it was 372 nm; in data set [3] (no co-lipid, 2.5kPS3k), 774 nm. For the same compound, the “ΔZave 300 mM sucrose” value in data set [3] (setting [11]) is on record as 7 nm; in data set [3] (co-lipid VES, 2.5kPS3k) it was 10 nm; in data set [3] (no co-lipid, 2.5kPS3k) it was 71 nm. The ΔZave water in [3] (setting [11]) is 20 nm; in [3] (co-lipid VES, 2.5kPS3k) it was 3 nm; in data set [3] (no co-lipid, 2.5kPS3k), 109 nm. Further, the “treatment induced delay in reaching a mean tumor size of 500 mm^3” value (“treatment induced delay” below) in [4] (setting [12]) amounted to 4 days. Also, the IC50 in data set [6] worked out at 1.1 ± 1.5 nM; in data set [8], 20.9 ± 10.9 nM. This compound also registered a partitioning half life in data set [7] of 1.7 h.
For the compound `CCCCCCCCCCCCCCCCCCCCOC(=O)COCC(=O)O[C@@H](C(=O)O[C@H]1C[C@@]2(O)[C@@H](OC(=O)c3ccccc3)[C@@H]3[C@]4(OC(C)=O)CO[C@@H]4C[C@H](O)[C@@]3(C)C(=O)[C@H](OC(C)=O)C(=C1C)C2(C)C)[C@@H](NC(=O)c1ccccc1)c1ccccc1` [Prodrug 6, 2′-O-(5″-O-cosanyldiglycoloyl)-paclitaxel], the Diameter in [2] (setting [10]) is reported as 23 nm. Moreover, in [3] (setting [11]), the “ΔZave 150 mM saline” value is 26 nm, the “ΔZave 300 mM sucrose” value is 36 nm and the ΔZave water is listed as 21 nm. Also, the “treatment induced delay” value in [4] (setting [12]) was determined as 15 days. The “hydrolysis of prodrug after processing plasma samples” value in data set [5] (after 9 hours) was “completely hydrolyzed”. Also, the IC50 in data set [6] came out at 16.6 ± 4.5 nM. In addition, the partitioning half life in data set [7] is given as about 6.5 h. The IC50 in [8] was determined as 29 ± 1.3 nM.
As for `CCCCCCCCCCCCCCCCCCCCCCOC(=O)COCC(=O)OC(C(=O)OC1CC2(O)C(OC(=O)c3ccccc3)C3C4(OC(C)=O)COC4CC(O)C3(C)C(=O)C(OC(C)=O)C(=C1C)C2(C)C)C(NC(=O)c1ccccc1)c1ccccc1` (centres unmarked) [Prodrug 7, 2′-O-(5″-O-docosanyldiglycoloyl)-paclitaxel], the Diameter in data set [2] (setting [10]) is given as 23 nm. Besides, in data set [3] (setting [11]), the “ΔZave 150 mM saline” value amounted to 24 nm, the “ΔZave 300 mM sucrose” value is 0 nm and the ΔZave water was 18 nm. Besides, in [4] (HT29, Q2Dx5, fitted curve, normalized to Taxol 23 μmol/kg), the “dose achieving parity with Taxol (delay in reaching tumor size of 125 mg from start of treatment)” value was 1.75 dose equivalents of paclitaxel. Also, the “dose achieving parity with Taxol (delay in reaching tumor size of 300 mg relative to saline)” value in data set [4] (HT29, Q2Dx5, linear dose response, normalized to Taxol 23 μmol/kg) was determined as 1.65 paclitaxel equivalents. In addition, the “dose achieving equivalent efficacy to Taxol at MTD” value in data set [4] (HT29, titration 0.25x to 3x paclitaxel equivalents) is reported as “approximately 1.7 paclitaxel equivalents”. Besides, in data set [4] (HT29, treated at MTD, Q2Dx5), the “tumor size at day 60” value is “below 50 mg”. Also, in data set [4] (setting [12]), the “treatment induced delay” value was 17 days. Moreover, the maximum tolerated dose in data set [9] is 69 µmol/kg. Besides, the IC50 in data set [6] stood at 23.5 ± 1.3 nM. In addition, in data set [7], the partitioning half life is about 10 h. Moreover, in data set [8], the IC50 was 29.5 ± 5.2 nM.

The values are drawn from patent US8486924B2, “Taxane delivery system” (Celator Pharmaceuticals, Inc., priority 2007, dated 2013).
